Assay results reported in patent US20220118051A1, “SELF-ASSEMBLING VEGF NANOPARTICLES” (Northwestern University, priority 2018, published 2022).
Entries after “also recorded” stand apart in the source; their conditions may differ. C16 = N-terminal C16 alkyl chain

B1: rVEGF: mouse recombinant VEGF (R&D systems) (protein)
chain: APTTEGEQKSHEVIKFMDVYQRSYCRPIETLVDIFQEYPDEIEYIFKPSCVPLMRCAGCCNDEALECVPTSESNITMQIMRIKPHQSQHIGEMSFLQHSRCECRPKKDRTKPENHCEPCSERRKHLFVQDPQTCKCSCKNTDSRCKARQLELNERTCRCDKPRR

Columns and labels:
[1] = test system: SCA1 knock-in mice (SCA1154Q/2Q); assay: Rotating rod assay (accelerating rotarod); type: in vivo, mouse; conditions: SCA1 mice at 26 weeks; for rotarod performance: after two-week ICV delivery from 24 weeks, compared to aCSF-treated SCA1 mice
Protocol: (§1) To test for behavioral and pathological improvement mice were treated for a two-week period starting at 24 weeks. Nano-VEGF, mouse rVEGF (R&D systems, Minneapolis, Minn.) or artificial CSF (sham controls) were delivered using the intracerebroventricular route (into the right lateral ventricle with stereotaxic coordinates: A/P −0.5 mm, M/L −1.1 mm, D/V −2.5 mm). using osmotic ALZET pumps; model #1002, Durect) (Cvetanovic et al., 2011; herein incorporated by reference in its entirety). Behavioral assays were performed at 26 weeks; while biochemical and histochemical analysis was performed at 27 weeks (after euthanasia). For electrophysiological experiments, we used 8-10 week-old mice for pump placement (with a similar two-week treatment regimen) since it is difficult to generate good electrophysiological traces from older mice.
Rotating Rod Assay: 26-week-old mice (post-treatment) were placed on a rotating rod apparatus (Ugo Basile) that accelerates linearly from 4 to 40 rotations per minute over a 5-minute period. Mice were subjected to four trials per day for four consecutive days, each trial lasting to a maximum of ten minutes, with at least ten minutes of rest between each trial. The average performances for each day were plotted, and statistical differences between the different groups were analyzed using repeated measures two-way ANOVA (followed by Tukey's honest significant difference post-hoc test for multiple comparisons). All statistical analyses here and elsewhere were performed using GraphPad Prism 6 software (GraphPad Software, La Jolla Calif. USA). Data were considered significant for p<0.05. Data are expressed as mean±SEM.

[2] = test system: SCA1 knock-in mice (SCA1154Q/2Q); assay: Gait analysis on transparent treadmill (Digigait); type: in vivo, mouse; conditions: tested up to 24 cm/s, untreated SCA1 mice barely walk at 5 cm/s
Protocol: as §1
Gait Analysis: Mice were placed on a transparent treadmill belt connected to a high-speed digital video camera (Digigait© system; Mouse Specifics, Inc.). The speed of the treadmill was set to the minimum of 5 cm/s up to maximum tolerated speed (maxed out at 24 cm/s). The performance of mice on the treadmill at different speeds was recorded with digital video camera.

[3] = test system: Purkinje cells; assay: Calbindin staining, Purkinje cell dendritic length; type: in vivo, mouse; conditions: SCA1 mice at 27 weeks; vs aCSF
Protocol: as §1
(§2) 27-week-old mice (post treatment and post behavioral analysis) were anesthetized by isoflurane inhalation and were perfused with ice-cold PBS, followed by 4% paraformaldehyde in PBS (Israeli et al., 2016; herein incorporated by reference in its entirety). The brains were post-fixed in 4% paraformaldehyde for 24 hrs, followed by tissue saturation in 30% sucrose for 48-72 hrs. […] After three washes in TBST, signals were detected using according secondary antibodies for 2 hours at RT. […]

[4] = biological target: T1, VEGFR2 (Mus musculus, UniProt P35918); assay: Phospho-VEGFR2 ELISA on cerebellar lysates; type: in vivo
T1 construct: Cerebellar lysates were prepared in 2× cell lysis buffer; from tissue; host or cells: mouse cerebellum (SCA1 154Q/2Q knock-in and wild-type mice)
T1 sequence (P35918 20-1345): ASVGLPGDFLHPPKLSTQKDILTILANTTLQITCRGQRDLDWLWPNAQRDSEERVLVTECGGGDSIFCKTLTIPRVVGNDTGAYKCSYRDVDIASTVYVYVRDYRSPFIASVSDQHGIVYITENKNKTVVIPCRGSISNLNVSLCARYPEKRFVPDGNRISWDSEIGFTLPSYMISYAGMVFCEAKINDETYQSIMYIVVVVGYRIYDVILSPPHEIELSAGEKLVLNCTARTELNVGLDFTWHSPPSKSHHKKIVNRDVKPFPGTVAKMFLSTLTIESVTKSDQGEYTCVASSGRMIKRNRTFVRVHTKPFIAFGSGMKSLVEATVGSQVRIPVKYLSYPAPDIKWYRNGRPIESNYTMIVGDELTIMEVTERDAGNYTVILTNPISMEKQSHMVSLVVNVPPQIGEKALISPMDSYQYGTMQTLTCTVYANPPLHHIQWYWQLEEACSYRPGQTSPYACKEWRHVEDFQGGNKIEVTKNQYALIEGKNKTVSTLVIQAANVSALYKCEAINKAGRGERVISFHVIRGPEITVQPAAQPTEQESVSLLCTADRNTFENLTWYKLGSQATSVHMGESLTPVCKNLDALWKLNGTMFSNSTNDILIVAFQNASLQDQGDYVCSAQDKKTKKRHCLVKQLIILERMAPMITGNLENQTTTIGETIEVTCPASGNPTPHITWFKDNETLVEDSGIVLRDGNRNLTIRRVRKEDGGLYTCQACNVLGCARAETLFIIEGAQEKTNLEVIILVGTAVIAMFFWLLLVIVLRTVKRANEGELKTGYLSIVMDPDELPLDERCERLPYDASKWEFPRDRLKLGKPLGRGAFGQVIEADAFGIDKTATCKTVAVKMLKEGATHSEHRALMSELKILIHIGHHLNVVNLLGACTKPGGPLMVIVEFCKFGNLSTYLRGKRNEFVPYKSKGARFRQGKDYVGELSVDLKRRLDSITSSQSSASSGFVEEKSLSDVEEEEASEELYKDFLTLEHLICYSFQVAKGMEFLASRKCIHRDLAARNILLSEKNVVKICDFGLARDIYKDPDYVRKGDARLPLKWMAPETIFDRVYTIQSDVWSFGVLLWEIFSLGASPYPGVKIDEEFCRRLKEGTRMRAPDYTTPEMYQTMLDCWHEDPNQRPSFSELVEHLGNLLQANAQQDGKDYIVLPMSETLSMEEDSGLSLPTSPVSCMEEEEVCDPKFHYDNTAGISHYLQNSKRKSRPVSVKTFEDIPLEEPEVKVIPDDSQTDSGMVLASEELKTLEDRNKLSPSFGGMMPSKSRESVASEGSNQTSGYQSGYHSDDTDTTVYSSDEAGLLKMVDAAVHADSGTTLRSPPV
Protocol: as §1
Phospho-VEGFR2 ELISA was performed using PathScan® Phospho-VEGFR2 (Ty1175) Sandwich ELISA kit (7335, Cell Signaling), according to manufacturer's instruction. Cerebellar lysates were prepared in 2× cell lysis buffer, and undiluted tissue lysates were incubated in 96-well plates coated with phosphor-VEGFR2 primary antibody overnight at 4° C. Wells were washed several times, and detection antibody was added to the well and incubated for 1 hr at 37C and with HRP-conjugated secondary antibody for 30 min at 37° C. Signals were detected with 3,3′,5,5′-Tetramethylbenzidine (TMB) substrate and sulfuric acid were added to stop the reaction. Absorbance was read at 450 nm within 30 min after stopping the reaction.

[5] = test system: cerebellar microvasculature; assay: Collagen IV immunostaining of cerebellar microvessels (AngioTool); type: in vivo, mouse; conditions: SCA1 mice cerebella
Protocol: as §1, §2

[6] = test system: ZO-1, Claudin-5 and Occludin; assay: Western blot of tight junction proteins in cerebella; type: in vivo, mouse; conditions: SCA1 mice cerebella, normalized to actin
Protocol: as §1
(§3) Proteins were extracted from cerebellar tissues using radioimmunoprecipitation assay (RIPA) buffer (50 mM Tris-HCl, pH 8.0, 150 mM NaCl, 1 mM EDTA, 10 mM NaF, 0.5% Sodium deoxycholate, 1% Triton-X 100, 0.1% SDS, protease inhibitors (Sigma)), and resolved on 7.5% SDS-PAGE gel. Densitometric analysis was evaluated using ImageJ 1.46r software (National Institutes of Health, Bethesda, Md., USA). […]

[7] = test system: Ataxin-1; assay: Western blot of Ataxin-1; type: in vivo, mouse; conditions: SCA1 mice, two weeks of treatment
Protocol: as §1, §3

[8] = test system: Ataxin-1 inclusions; assay: Immunohistochemistry of Ataxin-1 inclusions in hippocampal CA1; type: in vivo, mouse; conditions: SCA1 mice, 27 weeks; vs aCSF
Protocol: as §1
To quantify the percentage of cells with ataxin-1 inclusions in the CA1 regions of the hippocampus, brain sections were stained for ataxin-1 (mouse anti-Ataxin-1 11NQ clone N76/3; NeuroMab, 1:1000) and counterstained with DAPI. The number of cells with ataxin-1 inclusions in each defined region of interest was normalized to the number of cells stained with DAPI only. Statistical analysis was performed using unpaired t test. […]

[9] = test system: Purkinje cells; assay: Electrophysiological slice recordings, cell-attached, spontaneous firing; type: in vivo, mouse; conditions: SCA1 mice treated from 8-10 weeks for two weeks; vs vehicle (aCSF)
Protocol: as §1
Mice were anesthetized with isoflurane and killed by decapitation. The brains were removed from the skull and placed in warm (30-33° C.) artificial cerebrospinal fluid (ACSF) containing (in mM): 125 NaCl, 25 NaHCO3, 2.5 KCl, 1.25 NaH2PO4, 0.5 CaCl2), 7 MgCl2, 75 sucrose and 25 glucose, equilibrated with 95% O2 and 5% CO2 (pH 7.4). 300 μm thick para-sagittal cerebellar slices were cut using a vibratome (Leica VT1200) and stored in the same solution at 34° C. for 15 min and then at 20-22° C. until used (<6 hours). […] Cells were recorded in the I-Clamp fast mode. […]

[10] = cited from earlier work
[11] = cited from earlier work; remark: listed apart in the source
[12] = SCA1 mice, cerebellar lysates, vs aCSF

Row | Molecule | rotarod performance [1] | rotarod performance ([1]; listed as Nano-VEGF) | rotarod improvement, nano-VEGF compared with rVEGF ([1]; nano-VEGF 20.0 μg vs rVEGF 2.5 μg over two weeks ICV) | treadmill speed at which treated mice could walk and even run [2] [cm/s] | Purkinje cell dendritic length (calbindin staining) [3] | VEGFR2 phosphorylation level [4, 12] | VEGFR2 phosphorylation level ([4]; wild-type (WT) mice) | average vessel length, improvement compared with rVEGF [5] | branching index, improvement compared with rVEGF [5] | levels of capillary proteins (tight junction markers ZO-1, Claudin-4, and Occludin) [6] | Ataxin-1 protein levels [7] | percentage of cells with Ataxin-1 inclusions in the CA1 of hippocampi [8] | spontaneous firing of Purkinje cells [9] | bioequivalence relative to rVEGF ([10]; functional studies in mouse hind-limb ischemia model, basis for dose 20.0 μg vs 2.5 μg) | time detectable post-injection ([10]; ischemic limb model) | retention of particles in tissue ([10]; mouse hind-limb ischemia model) | half-life in vivo [11]
1 | C16-V2A2K3G-KLTWQELYQLKYKGI (C16-VVAAKKKGKLTWQELYQLKYKGI-NH2) [nano-VEGF, VEGF peptide (mimics VEGF residues 17-25) linked at N terminus to K3G, V2A2 β-domain and C16 alkyl chain; self-assembling peptide amphiphile] | performed markedly better than control SCA1 mice treated with artificial CSF | improved rotarod performance | tended to produce a greater improvement than rVEGF; also recorded: more effective | 17 | significantly increase dendritic length | rescued | did not upregulate phosphorylation of VEGFR2 | greater improvement | greater improvement | more effective than rVEGF | does not alter Ataxin-1 levels | does not differ from that of aCSF-treated mice | significantly faster and more regular firing; also recorded: increases firing in Purkinje cells | approximately eight times that of rVEGF | up to 4 weeks | retained in tissue even four weeks after delivery | –
2 | B1 | performed markedly better than control SCA1 mice treated with artificial CSF; also recorded: improved rotarod performance | – | – | 17 | significantly increase dendritic length | rescued | did not upregulate phosphorylation of VEGFR2 | – | – | – | – | – | – | – | – | – | about 30 minutes
